The text below walks through data of ChEMBL document CHEMBL1152066, “7,10-Bis(2-mercapto-2-methyl)propyl-7,10-diazapalmitic acid: a novel, N2S2 ligand for technetium-99m” (Bioorg Med Chem Lett, 1996).

Type in all cases: ADME, organism-based
Common to all, as to conditions: in vivo

Series [1] concerns Rattus norvegicus. As to the kind of experiment: Distribution of radioactivity in heart of fasted rats following concomitant intravenous administration of [99mTc]-7. value expressed as % injected dose / organ.
The subject of series [2] is Rattus norvegicus. Put plainly: Distribution of radioactivity in kidney of fasted rats following concomitant intravenous administration of [99mTc]7. value expressed as % injected dose / organ.
Series [3] deals with Rattus norvegicus. Put plainly: Distribution of radioactivity in lung of fasted rats following concomitant intravenous administration of [99mTc]7. value expressed as % injected dose / organ.
Series [4] concerns Rattus norvegicus. As to the kind of experiment: Distribution of radioactivity in spleen of fasted rats following concomitant intravenous administration of [99mTc]-7. value expressed as % injected dose / organ.
For series [5], the system named is Rattus norvegicus. Put plainly: (§1) Distribution of radioactivity in stomach of fasted rats following concomitant intravenous administration of [99mTc]7. value expressed as % injected dose / organ.
Series [6] has as its system Rattus norvegicus. The description is as §1. This is another data set of the same source.

SMILES strings stand for the structures. “And” between values parts separate entries of the source, which are not always exact repeats. Equal values may be shown once.

For `CCCCCCN(CCN(CCCCCC(=O)O)CC(C)(C)S)CC(C)(C)S`, the Injected dose/organ with Rattus norvegicus [1] was 0.22% and 0.56%; in the series on Rattus norvegicus [2], 3.42% and 1.18%; with Rattus norvegicus [3] it was 1.19% and 0.73%; in the series with Rattus norvegicus [4] it was 0.7% and 0.78%; in the series on Rattus norvegicus [5], 0.27% and 0.18%.
For the molecule `O=C(O)CCCCCCCCCCCCCCc1ccc([125I])cc1`, the Injected dose/organ with Rattus norvegicus [1] was 1.86% and 2.94%; with Rattus norvegicus [2] it was 2.07% and 0.71%; with Rattus norvegicus [3], 1.25% and 0.77%; with Rattus norvegicus [4], 0.54% and 0.57%; in the series on Rattus norvegicus [6] it was 0.42%; in the series with Rattus norvegicus [5] it was 0.27%.
